Measurements reported in US8470889B2 (TRT Pharma Inc., priority 2008, dated 2013).
Changes are numbered by the printed parent chain.

Tests used:
[1] = biological target: T1, wild-type human AR (Homo sapiens, UniProt P10275); assay: Luciferase assay for AR transactivation, wild-type AR, PC-3 cells; type: cell-based; set-up: Antiandrogenic activity evaluated by luciferase assay in PC-3 cells WT: key to the marks not given beside the values; conditions: test compound 1 μM, 0.1 nM DHT
T1 construct: utilizing plasmid expressing a full length of AR; expressed in transfected cells; host or cells: PC-3 cells, plasmid pCMV-AR-wt
T1 sequence (P10275 1-920): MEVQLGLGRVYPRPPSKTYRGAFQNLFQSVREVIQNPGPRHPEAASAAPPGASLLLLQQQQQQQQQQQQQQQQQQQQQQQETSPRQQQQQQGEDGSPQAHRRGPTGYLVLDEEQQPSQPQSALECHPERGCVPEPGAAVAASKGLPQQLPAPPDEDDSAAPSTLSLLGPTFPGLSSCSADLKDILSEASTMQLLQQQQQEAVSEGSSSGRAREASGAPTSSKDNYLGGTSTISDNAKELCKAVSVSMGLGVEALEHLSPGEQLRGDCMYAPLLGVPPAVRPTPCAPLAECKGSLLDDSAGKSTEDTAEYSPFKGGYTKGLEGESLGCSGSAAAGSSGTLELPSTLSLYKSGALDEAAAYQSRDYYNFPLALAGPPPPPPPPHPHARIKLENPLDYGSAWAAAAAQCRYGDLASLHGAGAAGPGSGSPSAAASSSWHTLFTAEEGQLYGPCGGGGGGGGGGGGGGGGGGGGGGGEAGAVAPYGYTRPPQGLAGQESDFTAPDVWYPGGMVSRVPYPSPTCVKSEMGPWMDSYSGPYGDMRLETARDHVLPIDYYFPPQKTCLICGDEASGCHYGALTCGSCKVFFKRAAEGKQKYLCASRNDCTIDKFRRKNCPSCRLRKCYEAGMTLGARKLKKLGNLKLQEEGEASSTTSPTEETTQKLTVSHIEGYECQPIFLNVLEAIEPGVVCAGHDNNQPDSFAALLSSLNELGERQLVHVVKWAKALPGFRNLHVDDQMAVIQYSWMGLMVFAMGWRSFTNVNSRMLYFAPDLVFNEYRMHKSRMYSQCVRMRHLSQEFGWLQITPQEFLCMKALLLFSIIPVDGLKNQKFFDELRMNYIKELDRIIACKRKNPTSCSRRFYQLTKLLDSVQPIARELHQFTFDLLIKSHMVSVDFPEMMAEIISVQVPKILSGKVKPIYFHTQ
Method: (§1) PC-3 cells were transiently transfected with pCMV-MMTV-Luc, Renilla null luciferase and AR expressing plasmids. The cells were treated with 0.1 nM DHT with and without test compound for 24 hr. Relative luciferase activity was determined by dual luciferase assay kit (Promega), standardized to Renilla luciferase control and normalized to 0.1 nM DHT without test compound (100%).
(§2) After 16 h, the cells were treated with 0.1 nM of DHT and test compounds at the designated concentration. After further 24 h, the cells were lysed in 100 μL/well passive lysis buffer, and 20 μL of the cell lysates was used for detection of the luciferase activity using Dual Luciferase Assay System (Promega). All experiments were run in triplicate. Relative luciferase activity is determined as the ratio of inducible firefly luciferase luminescence divided by the luminescence of the renilla luciferase control normalized to 0.1 nM DHT without test compounds.
(§3) The potency of antagonistic activity: ++>+.
PC-3 cells were transiently transfected with plasmid expressing wild type human AR and MMTV-Luc. […] RLU, relative luciferase units, were normalized to that of 0.1 nM DHT alone.

[2] = biological target: T2, T877A mutated AR (Homo sapiens, UniProt P10275, T878A); assay: Luciferase assay for AR transactivation, T877A AR, PC-3 cells; type: cell-based
T2 sequence (P10275 1-920 T878A): T1 sequence (P10275 1-920) with T878A
Method: as §1, §2, §3

[3] = biological target: T3, H874Y mutated AR (Homo sapiens, UniProt P10275, H875Y); assay: Luciferase assay for AR transactivation, H874Y AR, PC-3 cells; type: cell-based; conditions: test compound 1 μM, 0.1 nM DHT
T3 sequence (P10275 1-920 H875Y): T1 sequence (P10275 1-920) with H875Y
Method: as §1, §2, §3

[4] = test system: PC-3 cells; assay: MTT cell growth inhibition, PC-3; conditions: Part D table, 72 hours, I.A. = Inactive
Method: (§4) MDA PCa 2b was seeded at the same density in medium BRFF-HPC1 (Athena Enzyme Systems, Baltimore, Md., USA) supplemented with 20% FBS. After overnight incubation, the medium was changed to a fresh medium containing different concentrations of test compounds diluted from stock DMSO solution. The final concentration of DMSO is 0.5%. After 72 h of incubation with test compounds, 20 μL of 3-(4,5-dimethyl thiazol-2-yl)-2,5-diphenyltetrazolium bromide (MTT) solution (5 mg/mL in PBS) were added to each well and incubated further for 2 h. Next, the supernatant was aspirated and the MTT formazan formed by metabolically viable cells was dissolved in 100 μL of isopropanol. The plates were mixed for 30 min, and the absorbance was measured at 600 nm on a plate reader (FLUOstar OPTIMA, BMG LabTech). All samples were in triplicate. The IC50 values were determined from dose-response curves by nonlinear regression using PRISM v5.00 (GraphPad Software Inc, La Jolla, Calif., USA).
(§5) The in vitro cytotoxicity of 1-20 were evaluated by MTT assays in a panel of prostate cancer cell lines, including LNCaP, MDA PCa 2b, 22Rv1, C4-2B and PC-3.

[5] = test system: LNCaP cells; assay: MTT cell growth inhibition, LNCaP;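 further: MTT formazan absorbance at 600 nm read after 72 h of compound exposure, IC50 fitted by nonlinear regression of dose-response curves, samples run in triplicate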; conditions: Part D table, 72 hours, I.A. = Inactive
Method: as §4, §5

[6] = test system: 22Rv1 cells; assay: MTT cell growth inhibition, 22Rv1
Method: as §4, §5

[7] = test system: C4-2B cells; assay: MTT cell growth inhibition, C4-2B;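 further: cells treated with a dilution series for 72 h, then MTT added and absorbance read at 600 nm, IC50 fitted from dose-response curves by nonlinear regression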; conditions: Part D table, 72 hours, I.A. = Inactive
Method: as §4, §5

[8] = test system: MDA PCa 2b cells; assay: MTT cell growth inhibition, MDA PCa 2b;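 further: MDA PCa 2b prostate cancer cells in BRFF-HPC1 with 20% FBS, exposed to compounds for 72 h, viable-cell MTT formazan read as absorbance at 600 nm, 0.5% DMSO vehicle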
Method: as §4, §5

[9] = 72 hrs, concentrations up to 50 μM, FIG. 2

CC(C)(O)C(=O)Nc1ccc([N+](=O)[O-])c(C(F)(F)F)c1 [OHF, hydroxyflutamide, reference compound]
Antiandrogenic activity evaluated by luciferase assay in PC-3 cells WT [1]: ++ | agonist activity on T877A AR ([2]; absence of DHT, PC-3 cells): activated | Antiandrogenic activity evaluated by luciferase assay in PC-3 cells T877A ([2]; test compound 1 μM, 0.1 nM DHT): Agonist | Antiandrogenic activity evaluated by luciferase assay in PC-3 cells H874Y [3]: + | Cytotoxicity in prostate cancer cell lines IC50 (μM), PC-3 [4]: I.A. | Cytotoxicity in prostate cancer cell lines IC50 (μM), LNCaP [5]: I.A. | growth inhibitory effect on 22Rv1 cells [6, 9]: resistant | IC50 ([6]; read-out: Cytotoxicity in prostate cancer cell lines IC50 (μM), 22Rv1, Part D table, MTT, 72 hours): > 50 µM | Cytotoxicity in prostate cancer cell lines IC50 (μM), C4-2B [7]: I.A. | growth inhibitory effect on PCa 2b cells [8, 9]: resistant | IC50 ([8]; read-out: Cytotoxicity in prostate cancer cell lines IC50 (μM), PCa-2b, Part D table, MTT, 72 hours): > 50 µM
